Assay results taken from US11878013B2, “Isoquinoline derivative, preparing method thereof, and pharmaceutical composition for preventing or treating autophagy related diseases containing the same as an active ingredient” (Korea Research Institute of Chemical Technology, priority 2021, dated 2024).
Where two headings read alike, the source gives them in different places.

Columns and labels:
[1] = system: Raw 264.7 mouse macrophages; assay: Cell viability of LPS-treated Raw 264.7 macrophages; type: cell-based
Experimental: (§1) Raw 264.7 mouse macrophages were aliquoted in a 96-well plate at the density of 1×10^5 cells/well and stabilized in a 37° C., 5% CO2 incubator for 24 hours. The Raw 264.7 cells were treated with the compound of Example 1 by concentration. After 1 hour, the cells were treated with 1 ug/ml of LPS and cultured for 24 hours. For the measurement of NO production, 40 mg/ml of Griess reagent was prepared and it was mixed with the culture supernatant at the same ratio. The mixture was reacted at room temperature for 15 minutes, and absorbance was measured at 540 nm. Based on the results obtained therefrom, the cell viability and NO production rate were expressed as percentages in terms of LPS.

NO production = NO production in LPS-treated Raw 264.7 macrophages (Griess reagent); type: cell-based, mouse; conditions: 1 ug/ml LPS, 24 hours, Raw 264.7 cells; test concentration not given
Experimental: In order to confirm the effect of the compound of Example 1 of the present invention on NO production in Raw 264.7 mouse macrophages in which inflammatory response was induced by LPS, an experiment was performed as follows.
as §1

artificial skin tissue = assay: Skin toxicity test on artificial skin (MTT); type: cell-based; conditions: 5% SDS control group
Experimental: In order to evaluate the skin toxicity that may be induced upon skin contact of the compound of Example 1 of the present invention, the following experiment was performed using the artificial skin prepared with a structure similar to the skin of a living body.
Particularly, the experiment was performed according to OECD Guideline for the Testing of Chemicals No. 439, OECD (2010) and the method recommended by the manufacturer (Tegoscience).
First, the artificial skin cultured in agarose medium was transferred to a 12-well cell culture plate, to which culture medium was added, followed by culture in a humidified 37° C. 5% CO2 incubator for one day. The medium on the artificial skin culture surface was eliminated, and 90 μl of the compound of Example 1 of the present invention diluted with PBS was evenly applied to the skin surface, followed by incubation at room temperature for 15 minutes. The cell surface was washed twice with 10 ml of PBS, and a fresh culture medium was added, followed by incubation in a humidified 37° C. 5% CO2 incubator for 42 hours. In order to measure the viability of the skin, the artificial skin was transferred to a 12-well plate containing 2 ml of MTT solution (0.3 mg/ml), followed by culture for 3 hours. The stained artificial skin tissue was taken and transferred to a tube containing 500 μl of 0.04 N-isopropanol, and then incubated with shaking for 4 hours to decolorize. The solution was centrifuged at 13,000 rpm for 5 minutes, 100 μl of the supernatant was transferred to each well of a 96-well plate, and absorbance was measured at 570 nm.

melanogenesis = conditions: Bioorganic & Medicinal Chemistry Letters 30 (2020) 127201; cited from earlier work
zebrafish [2] = assay: Whitening effect: melanin synthesis / melanocyte formation in zebrafish; type: in vivo; conditions: 5 μM, treated 10 hours after fertilization, read at 32 hours after fertilization; PTU 200 μM as control
Source text: When observing the regeneration of melanin pigment, after inhibiting the formation of melanin pigment, it can be investigated by limiting it to the melanocyte generation pathway, and it is easy to observe the melanin synthesized in the initial stage of development. Therefore, zebrafish is more useful for the study of melanin pigment changes compared to other animal models (Logan D W, Burn S F, Jackson I J. (2006) Regulation of pigmentation in zebrafish melanophores. Pigment Cell Res. 2006 June; 19(3):206-13.).
Particularly, zebrafish fertilized eggs 10 hours after fertilization were placed in a 24-well plate (10 eggs/well), and 1 ml of egg water was added to each well of the plate. The compound of Example 1 was added to each well at the concentrations of 0.1 μM and 1 μM, so that the final volume of each well was 2 ml. Then, each 24-well plate was wrapped in foil to block light, and then incubated in a 28° C. incubator for 22 hours. At 32 hours after fertilization, in order to photograph the formation of black melanocytes, the chorion of the developing embryo was peeled off using a forcep (Fine Science Tools). After anesthetizing the developing embryo with Tricaine (4 g/L), the embryo was photographed on 3% methyl cellulose. As the equipment for photographing the developing embryo, a LEICA MZ10F fluorescence microscope, a LEICA DFC425 camera, and Leica Application Suite software (v4.5) were used. In all the experimental procedures, egg water sterilized after dissolving 60 mg/L of sea salt (Sigma-Aldrich, S9883) in tertiary distilled water was used as a solution for culturing the developing embryo. As a control group, a solvent control group (0.4% DMSO) and phenylthiourea (200 μM PTU), known as a tyrosinase inhibitor, were used (FIG. 6A).
In the same manner, experiments were performed with the compound of Comparative Example 1 at the concentrations of 0.5 μM, 1 μM, and 5 μM, and the results are shown in FIG. 6B.
On the other hand, in order to confirm the ability of the compound of the present invention to inhibit the melanin synthesis of the already generated melanocytes, the following experiment was performed with juvenile fish 60 hours after fertilization. Particularly, juvenile fish 60 hours after fertilization were placed in a 24-well plate (10/well), and 1 ml of egg water was added to each well of the plate. The compound of Example 1 was added to each well at the concentrations of 10 μM and 20 μM, so that the final volume of each well was 2 ml. Then, each 24-well plate was wrapped in foil to block light, and then incubated in a 28° C. incubator for 12 hours. In order to photograph the formation of black melanocytes, the developing embryo was anesthetized with Tricaine (4 g/L), and then the embryo was photographed on 3% methyl cellulose. […]

zebrafish [3] = assay: Fatty liver inhibitory effect in tamoxifen-treated zebrafish juvenile fish (LipidGreen2 staining); type: in vivo; conditions: 5 μM tamoxifen alone, 22 hours (FIG. 8 top)
Experimental: In order to evaluate the inhibitory efficacy of the novel isoquinoline derivative of the present invention on fatty liver, an experiment was performed as follows using LipidGreen2 staining reagent capable of staining lipid droplets.
Particularly, the zebrafish used in this Experimental Example were juvenile fish 5 days after fertilization. Healthy juvenile fish were placed in a 24-well plate (10/well), and 1 ml of egg water was added to each well of the plate. As a negative control that could not regulate fatty liver, DMSO diluted at 0.4% was exposed to juvenile fish, and tamoxifen (Sigma-Aldrich, T5648) diluted at 5 μM was exposed to juvenile fish to control […] fatty liver. In order to investigate the fatty liver inhibitory efficacy of the compound of Example 1 of the present invention, the compound (0.5 μM, 1 μM and 5 μM) was mixed with 5 μM tamoxifen and exposed to juvenile fish (final volume of each well: 2 ml). The 24-well plate containing the compound was wrapped in foil to block light, and then incubated in a 28° C. incubator for 22 hours. The plate was washed with egg water 3 times for 5 minutes to remove the compound from each well. For fat-specific staining, LipidGreen2 diluted at 5 μM was exposed to juvenile fish for 30 minutes, and then washed 3 times with egg water for 5 minutes. To evaluate the fatty liver of zebrafish juvenile fish, the developing embryo was anesthetized with Tricaine (4 g/L), and then photographed on 3% methyl cellulose. As the equipment for photographing the developing embryo, a LEICA MZ10F fluorescence microscope, a LEICA DFC425 camera, and Leica Application Suite software (v4.5) were used. For the fluorescence wavelength, a GFP Plants filter set (Excitation 470/40 nm, Emission 525/50 nm) was used. To quantify the liver area and the degree of fat staining of juvenile fish on the image, the area and the fluorescence intensity of the liver part of each image were quantified using ImageJ 1.50i software (National Institutes of Health, USA) and converted into heatmap images.

[4] = system: artificial corneal tissue; assay: Ocular toxicity test on artificial cornea (MTT); type: cell-based; conditions: 10% acetic acid control group
Experimental: In order to evaluate the ocular toxicity that may be induced upon ocular exposure of the compound of Example 1 of the present invention, the following experiment was performed using the cultured artificial cornea.
The artificial corneal tissue cultured in agarose medium was transferred to a 12-well cell culture plate, to which culture medium was added, followed by culture in a humidified 37° C. 5% CO2 incubator for one day. The medium on the artificial cornea culture surface was eliminated, and 30 μl of the compound of Example 1 of the present invention diluted with PBS was evenly applied to the cornea surface, followed by incubation at room temperature for 30 minutes. The cell surface was washed twice with 10 ml of PBS, and a fresh culture medium was added, followed by incubation in a humidified 37° C. 5% CO2 incubator for 30 minutes. In order to measure the viability of the cornea, the artificial cornea was transferred to a 12-well plate containing 2 ml of MTT solution (1 mg/ml), followed by culture for 3 hours. The stained artificial corneal tissue was taken and transferred to a tube containing 1.5 ml of isopropanol, and then incubated with shaking to decolorize. The solution was centrifuged at 13,000 rpm for 5 minutes, 100 μl of the supernatant was transferred to each well of a 96-well plate, and absorbance was measured at 570 nm.

[5] = LPS-treated Raw 264.7 cells, 24 hours, test concentration not given

Compound	Cell viability (% of control) [1, 5]	NO production (% of control) (NO production)	further results
[O-][S+](c1ccc(Cl)cc1)c1nccc2ccccc12 (centres unmarked) [Example 4, 1-((4-Chlorophenyl)Sulfinyl)Isoquinoline]	96 % of control	40 % of control	–
CCCCCCCCCCCCOS(=O)(=O)[O-].[Na+] [SDS, reference compound]	–	–	MTT color development of artificial skin (artificial skin tissue): significant decrease of the MTT color development
O=S(=O)(c1ccc(F)cc1)c1nccc2ccccc12 [Comparative Example 2, 1-((4-Fluorophenyl) Sulfonyl)Isoquinoline, reference compound]	73 % of control	65 % of control	–
Fc1ccc(Sc2nccc3ccccc23)cc1 [Comparative Example 1, 1-((4-Fluorophenyl)Thio) Isoquinoline, reference compound]	–	–	anti-melanogenic effect (melanogenesis): anti-melanogenic effect; synthesis of melanin (zebrafish [2]): level similar to that of the PTU-treated group
1-((4-Fluorophenyl)Thio) Isoquinoline [Comparative Example 1, reference compound]	–	70 % of control	Cell viability (% of control) [1]: 95 % of control
[O-][S+](c1ccc(F)cc1)c1ccnc2ccccc12 (centres unmarked) [Example 2, 4-((4-Fluorophenyl)Sulfinyl)Quinoline]	100 % of control	26 % of control	–
[O-][S+](c1ccc(F)cc1F)c1nccc2ccccc12 (centres unmarked) [Example 3, 1-((2,4-Difluorophenyl)Sulfinyl)Isoquinoline]	103 % of control	30 % of control	–
CC/C(=C(\c1ccccc1)c1ccc(OCCN(C)C)cc1)c1ccccc1 [tamoxifen, reference compound]	–	–	liver area (zebrafish [3]): maintained at the liver area level of normal juvenile fish
CC(=O)O [acetic acid, reference compound]	–	–	MTT color development of artificial cornea [4]: significant decrease of the MTT color development
[O-][S+](c1ccc(C(F)(F)F)cc1)c1nccc2ccccc12 (centres unmarked) [Example 5, 1-((4-(Trifluoromethyl)Phenyl)Sulfinyl) Isoquinoline]	101 % of control	25 % of control	–
